In assay [1] the target is T1, Photoreceptor-specific nuclear receptor (Homo sapiens, UniProt Q9Y5X4). The assay is described as follows: NR2E3 inverse agonists, dose response, biochemical, TR-FRET (AID 463256). In kind it is functional. A general note: TR-FRET usually uses a lanthanide donor and a delayed reading to cut background.
Assay [2] concerns the target T2, Peroxisome proliferator-activated receptor gamma/Nuclear receptor corepressor 2 (Homo sapiens, UniProt P37231+Q9Y618). The assay can be described thus: Counterscreen for NR2E3 inverse agonists: TR-FRET-based biochemical high throughput dose response assay to identify inverse agonists of the interaction between peroxisome proliferator-activated receptor gamma (PPARg) and nuclear receptor co-repressor 2 (NCOR2). In kind it is functional.

The nature of assay [3]: P. falciparum late gametocyte killing, dose response, luminescence (AID 1117278).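 Also: gametocytes exposed to compound for 24 hours.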 It counts as functional, cell-based.
A short description of assay [4]: Jurkat T cell cytotoxicity, dose response, cytotoxicity control for P. falciparum gametocyte viability project, luminescence (AID 1117277).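 Also: potency reflects loss of cellular ATP meaning fewer viable cells.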 It counts as functional, cell-based.
In assay [5] the target is Ephrin type-A receptor 4 (Mus musculus, UniProt Q03137). The assay is described as follows: inhibitors of EphA4 binding to KYL peptide, primary screen, biochemical, colorimetric, mouse EphA4 (AID 689). In kind it is functional.
Assay [6] addresses Heat shock protein HSP 90-alpha (Homo sapiens, UniProt P07900). The assay is described as follows: Luminescence-based dose response biochemical high throughput screening assay for inhibitors of the Heat Shock Protein 90 (HSP90). [Related pubchem assays: 1831 (Summary AID.), 1846 (Confirmation screen.), 1789 (Primary screen.)].
Assay [7] is described as follows: antifungal activity, alamar blue, dry powder, counter-screen for C. neoformans cell wall antifungals, dose response (AID 743128). In kind it is functional, organism-based. For orientation: Resazurin is reduced to fluorescent resorufin, in cell work by metabolically active cells.
Assay [8] is described as follows: M. tuberculosis growth inhibition, HTS (AID 449762). In kind it is functional.
The target of assay [9] is T3, Low molecular weight phosphotyrosine protein phosphatase (Homo sapiens, UniProt P24666).
T3 sequence (P24666 whole entry): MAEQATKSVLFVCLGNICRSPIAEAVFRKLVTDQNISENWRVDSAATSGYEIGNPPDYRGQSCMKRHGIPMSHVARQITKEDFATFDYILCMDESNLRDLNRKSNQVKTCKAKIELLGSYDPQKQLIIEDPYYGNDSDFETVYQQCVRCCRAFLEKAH
The assay can be described thus: LMPTP phosphatase inhibitors, dose response, biochemical, OMFP substrate, fluorescence intensity, set 2 (AID 743307). It counts as functional.

The target of assay [10] is T3, Low molecular weight phosphotyrosine protein phosphatase. The assay is described as follows: LMPTP phosphatase inhibitors, colorimetric pNPP readout, dose response, orthogonal assay, biochemical, absorbance, pNPP substrate, LMPTP-A isoform, set 2 (AID 743308). In kind it is functional.
Assay [11] addresses Genome polyprotein (Hepatitis C virus, UniProt Q2Q167). The assay is described as follows: HCV core protein dimerization inhibitors, dose response, biochemical, TR-FRET (AID 2159).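 Also: blocks dimerization of HCV core protein measured by TR-FRET between tagged core106 pairs.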 Also noted: species or system Hepacivirus hominis.
The target of assay [12] is Beta-lactamase (Pseudomonas aeruginosa, UniProt Q79MP6).
Assay [13] deals with T2, Peroxisome proliferator-activated receptor gamma/Nuclear receptor corepressor 2. It counts as functional.
Assay [14] addresses T1, Photoreceptor-specific nuclear receptor. In kind it is functional.
Assay [15] can be described thus: inhibitors of SNCA 5'UTR-driven reporter translation, confirmation, H4 neuroglioma cells, luminescence (AID 1988). In kind it is functional, cell-based.
Assay [16] addresses Histone-lysine N-methyltransferase NSD2 (Homo sapiens, UniProt O96028). It counts as biochemical.
A short description of assay [17]: inhibitors of firefly luciferase expression or activity, dose response, H4 neuroglioma cells, luminescence (AID 1990). In kind it is functional, cell-based.
The nature of assay [18]: Cytotoxicity screening for potential Inhibitors of Bacterial Capsule Biogenesis. [Related pubchem assays (depositor defined):AID488970]. In kind it is functional.
Assay [19] has as its target Beta-lactamase (Salmonella choleraesuis (strain SC-B67), UniProt Q5J463).
Assay [20] can be described thus: Luminescence Cell-Based Dose Response HTS to Identify Inhibitors of 5'UTR Stem-Loop Driven Prion Protein mRNA Translation in H4 Neuroglioblastoma Cells. [Related pubchem assays: 1827 (Project Summary), 1813 (Primary HTS)]. It counts as functional.
Assay [21] in a line: Glucagon-like peptide 1 release potency, NCI-H716 cell line, dose-response, half-maximal inhibitory concentration (AID 1117344). In kind it is functional, cell-based.
Assay [22] is described as follows: HeLa 2N DNA content increase, dose response, cell-based, IC50 (AID 1117349). In kind it is functional.
Assay [23] can be described thus: half-maximal inhibitory concentration for glucagon-like peptide-1 release, STC-1 cell line, dose-response (AID 1117345). It counts as functional, cell-based.
Assay [24] in a line: HeLa 4N DNA content increase, dose response, cell-based, IC50 (AID 1117351). In kind it is functional.
Assay [25] can be described thus: Dose-response inhibition of insulin secretion in a rat insulinoma line at 5 mM glucose (AID 1117331). The settings on record: INS-1E. In kind it is functional, cell-based.
In assay [26] the test system is Danio rerio. The assay can be described thus: In Vivo Angiogenesis Dose-Response Confirmation. [Related pubchem assays: 732 (Assay preceding this confirmatory assay.)]. In kind it is functional, organism-based.

From ChEMBL document CHEMBL1201862, “PubChem BioAssay data set” (2004) come the findings set out here.

The source made the active and inactive calls. A value given as a limit tells only on which side of the number the result lay.

T1 sequence (Q9Y5X4 whole entry): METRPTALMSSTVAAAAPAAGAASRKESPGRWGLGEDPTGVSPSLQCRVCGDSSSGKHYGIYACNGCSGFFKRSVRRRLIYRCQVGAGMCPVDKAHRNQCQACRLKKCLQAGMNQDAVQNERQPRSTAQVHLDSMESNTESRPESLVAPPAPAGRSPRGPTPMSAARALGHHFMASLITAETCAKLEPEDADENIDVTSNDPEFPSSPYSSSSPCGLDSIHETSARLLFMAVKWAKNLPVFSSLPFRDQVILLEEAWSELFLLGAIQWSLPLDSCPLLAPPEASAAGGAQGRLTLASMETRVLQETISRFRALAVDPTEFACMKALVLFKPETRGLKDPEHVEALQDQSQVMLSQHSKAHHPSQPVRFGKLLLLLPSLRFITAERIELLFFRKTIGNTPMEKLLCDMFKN
T2 sequence (P37231 whole entry): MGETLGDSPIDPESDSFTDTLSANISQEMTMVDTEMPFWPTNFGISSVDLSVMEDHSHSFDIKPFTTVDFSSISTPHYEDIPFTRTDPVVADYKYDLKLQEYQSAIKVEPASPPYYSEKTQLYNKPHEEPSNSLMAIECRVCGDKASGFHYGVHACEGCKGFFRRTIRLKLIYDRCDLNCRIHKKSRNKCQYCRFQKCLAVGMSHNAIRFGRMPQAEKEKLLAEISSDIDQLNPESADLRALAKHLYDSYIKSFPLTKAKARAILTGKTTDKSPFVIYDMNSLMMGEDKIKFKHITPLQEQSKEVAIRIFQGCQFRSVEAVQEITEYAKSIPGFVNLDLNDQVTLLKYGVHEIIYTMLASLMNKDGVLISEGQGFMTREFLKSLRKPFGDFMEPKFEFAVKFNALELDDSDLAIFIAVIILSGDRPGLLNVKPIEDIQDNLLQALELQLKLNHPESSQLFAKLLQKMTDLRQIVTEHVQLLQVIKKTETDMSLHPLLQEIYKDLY
T2 sequence (Q9Y618 whole entry): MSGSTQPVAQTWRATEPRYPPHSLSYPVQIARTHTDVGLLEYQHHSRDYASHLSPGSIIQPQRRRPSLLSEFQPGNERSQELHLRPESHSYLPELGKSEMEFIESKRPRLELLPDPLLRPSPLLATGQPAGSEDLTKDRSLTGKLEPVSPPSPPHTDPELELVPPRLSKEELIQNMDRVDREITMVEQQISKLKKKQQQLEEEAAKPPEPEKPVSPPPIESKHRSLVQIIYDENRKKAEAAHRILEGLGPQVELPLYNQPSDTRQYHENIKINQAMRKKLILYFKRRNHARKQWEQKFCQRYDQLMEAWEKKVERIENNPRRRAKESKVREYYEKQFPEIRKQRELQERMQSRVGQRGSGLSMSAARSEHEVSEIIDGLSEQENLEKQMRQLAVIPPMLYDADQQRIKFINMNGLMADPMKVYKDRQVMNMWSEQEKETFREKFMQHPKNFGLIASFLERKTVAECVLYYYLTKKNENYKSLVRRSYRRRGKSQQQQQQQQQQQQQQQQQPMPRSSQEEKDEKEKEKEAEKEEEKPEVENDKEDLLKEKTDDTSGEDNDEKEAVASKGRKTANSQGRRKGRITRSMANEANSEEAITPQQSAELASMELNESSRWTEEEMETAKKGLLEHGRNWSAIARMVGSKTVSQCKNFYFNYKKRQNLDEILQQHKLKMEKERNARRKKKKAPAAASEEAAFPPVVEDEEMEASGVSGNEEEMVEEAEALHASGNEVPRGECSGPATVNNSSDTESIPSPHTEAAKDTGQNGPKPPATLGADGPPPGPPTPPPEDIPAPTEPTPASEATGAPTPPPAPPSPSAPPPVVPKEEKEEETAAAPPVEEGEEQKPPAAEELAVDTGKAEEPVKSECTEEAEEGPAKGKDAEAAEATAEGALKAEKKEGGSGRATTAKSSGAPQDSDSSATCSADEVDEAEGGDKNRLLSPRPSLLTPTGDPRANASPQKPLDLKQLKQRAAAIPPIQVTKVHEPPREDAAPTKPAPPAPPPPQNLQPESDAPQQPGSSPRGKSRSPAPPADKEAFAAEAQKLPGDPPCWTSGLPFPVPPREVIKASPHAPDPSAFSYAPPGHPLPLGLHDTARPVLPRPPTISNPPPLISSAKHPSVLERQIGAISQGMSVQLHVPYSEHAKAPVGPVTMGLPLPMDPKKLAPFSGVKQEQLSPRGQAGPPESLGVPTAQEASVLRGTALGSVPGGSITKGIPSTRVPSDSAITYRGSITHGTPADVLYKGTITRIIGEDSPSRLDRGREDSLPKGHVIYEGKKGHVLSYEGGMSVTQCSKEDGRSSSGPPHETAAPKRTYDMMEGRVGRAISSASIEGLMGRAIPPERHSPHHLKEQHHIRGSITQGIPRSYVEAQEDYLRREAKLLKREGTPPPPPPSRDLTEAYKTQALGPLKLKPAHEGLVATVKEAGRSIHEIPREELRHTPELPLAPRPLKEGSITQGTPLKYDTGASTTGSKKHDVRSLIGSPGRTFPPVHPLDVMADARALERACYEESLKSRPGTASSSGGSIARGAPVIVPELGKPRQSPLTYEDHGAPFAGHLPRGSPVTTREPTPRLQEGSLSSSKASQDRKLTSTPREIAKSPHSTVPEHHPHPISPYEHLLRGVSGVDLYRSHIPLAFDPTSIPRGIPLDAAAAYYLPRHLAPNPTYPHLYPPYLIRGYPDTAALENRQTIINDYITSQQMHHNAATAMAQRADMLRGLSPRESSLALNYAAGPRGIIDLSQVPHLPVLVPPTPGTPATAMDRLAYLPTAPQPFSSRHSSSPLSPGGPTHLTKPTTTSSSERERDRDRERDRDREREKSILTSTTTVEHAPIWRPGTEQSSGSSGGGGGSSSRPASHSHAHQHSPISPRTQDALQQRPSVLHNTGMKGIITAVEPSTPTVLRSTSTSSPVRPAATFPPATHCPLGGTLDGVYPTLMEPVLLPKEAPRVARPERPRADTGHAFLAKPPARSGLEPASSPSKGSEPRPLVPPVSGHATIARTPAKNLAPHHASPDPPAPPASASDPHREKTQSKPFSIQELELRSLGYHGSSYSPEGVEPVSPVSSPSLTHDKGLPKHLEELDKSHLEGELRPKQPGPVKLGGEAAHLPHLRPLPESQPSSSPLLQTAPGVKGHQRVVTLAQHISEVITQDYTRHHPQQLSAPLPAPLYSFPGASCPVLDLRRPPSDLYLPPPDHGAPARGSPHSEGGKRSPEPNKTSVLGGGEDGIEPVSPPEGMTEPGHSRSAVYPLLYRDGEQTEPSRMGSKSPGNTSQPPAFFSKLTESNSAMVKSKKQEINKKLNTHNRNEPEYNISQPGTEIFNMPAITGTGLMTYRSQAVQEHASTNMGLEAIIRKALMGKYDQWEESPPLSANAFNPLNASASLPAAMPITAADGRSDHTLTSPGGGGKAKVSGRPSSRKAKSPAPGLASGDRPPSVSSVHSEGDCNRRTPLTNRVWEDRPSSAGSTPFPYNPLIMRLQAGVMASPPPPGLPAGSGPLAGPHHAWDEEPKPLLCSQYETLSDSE
Beta-lactamase (Salmonella choleraesuis (strain SC-B67), UniProt Q5J463), sequence (Q5J463 whole entry): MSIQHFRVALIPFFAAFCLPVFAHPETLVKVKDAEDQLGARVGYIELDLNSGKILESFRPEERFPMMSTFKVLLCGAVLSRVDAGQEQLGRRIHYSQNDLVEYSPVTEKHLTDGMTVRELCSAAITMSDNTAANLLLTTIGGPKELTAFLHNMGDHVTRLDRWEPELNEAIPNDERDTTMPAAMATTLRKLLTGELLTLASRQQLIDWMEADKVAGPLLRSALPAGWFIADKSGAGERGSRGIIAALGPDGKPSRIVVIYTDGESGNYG
Beta-lactamase (Pseudomonas aeruginosa, UniProt Q79MP6), sequence (Q79MP6 whole entry): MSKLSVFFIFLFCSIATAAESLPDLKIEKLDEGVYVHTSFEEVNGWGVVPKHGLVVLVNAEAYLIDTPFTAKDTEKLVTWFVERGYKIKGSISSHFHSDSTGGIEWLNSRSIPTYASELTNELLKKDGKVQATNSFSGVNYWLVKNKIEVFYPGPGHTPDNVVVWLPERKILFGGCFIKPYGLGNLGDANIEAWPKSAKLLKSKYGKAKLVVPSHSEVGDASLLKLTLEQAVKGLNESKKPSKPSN
Ephrin type-A receptor 4, sequence (Q03137 whole entry): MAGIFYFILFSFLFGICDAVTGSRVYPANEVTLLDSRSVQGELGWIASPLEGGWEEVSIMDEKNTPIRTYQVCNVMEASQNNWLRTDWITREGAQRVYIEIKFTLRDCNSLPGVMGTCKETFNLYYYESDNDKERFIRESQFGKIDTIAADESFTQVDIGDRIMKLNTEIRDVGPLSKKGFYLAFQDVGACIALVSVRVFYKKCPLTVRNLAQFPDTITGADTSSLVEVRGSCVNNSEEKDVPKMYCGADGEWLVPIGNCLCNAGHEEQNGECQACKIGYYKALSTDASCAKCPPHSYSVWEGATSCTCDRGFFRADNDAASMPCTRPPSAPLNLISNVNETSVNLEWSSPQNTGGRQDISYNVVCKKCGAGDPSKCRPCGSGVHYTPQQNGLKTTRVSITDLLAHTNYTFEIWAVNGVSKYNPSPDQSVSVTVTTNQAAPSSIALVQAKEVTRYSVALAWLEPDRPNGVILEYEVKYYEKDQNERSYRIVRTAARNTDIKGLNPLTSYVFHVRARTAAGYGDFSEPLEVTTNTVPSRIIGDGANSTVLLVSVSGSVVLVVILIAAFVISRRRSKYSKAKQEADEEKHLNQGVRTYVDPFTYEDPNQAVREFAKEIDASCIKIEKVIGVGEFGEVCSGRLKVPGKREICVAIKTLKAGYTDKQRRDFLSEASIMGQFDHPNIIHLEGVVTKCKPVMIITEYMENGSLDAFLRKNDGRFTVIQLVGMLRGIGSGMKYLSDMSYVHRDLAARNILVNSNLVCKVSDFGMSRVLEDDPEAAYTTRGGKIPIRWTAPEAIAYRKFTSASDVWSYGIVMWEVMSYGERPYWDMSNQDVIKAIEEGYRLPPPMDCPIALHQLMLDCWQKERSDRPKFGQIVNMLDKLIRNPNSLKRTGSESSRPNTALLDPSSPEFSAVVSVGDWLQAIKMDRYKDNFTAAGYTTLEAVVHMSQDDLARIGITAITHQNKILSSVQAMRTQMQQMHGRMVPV
Genome polyprotein, sequence (Q2Q167 whole entry): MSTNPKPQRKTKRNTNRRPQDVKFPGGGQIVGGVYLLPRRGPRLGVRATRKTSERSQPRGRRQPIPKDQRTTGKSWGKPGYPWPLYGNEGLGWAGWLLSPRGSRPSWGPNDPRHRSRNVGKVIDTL

With `Cc1ccc(-c2cc(C(=O)NCc3cnn(C)c3)c3cc(Br)ccc3n2)cc1`, the values for the IC50 in assay [1] and in assay [2] were 2.99 µM (active) and 1.56 µM (active), respectively.

Consider `CC(=O)c1ccc(NC(=O)c2ccc(S(=O)(=O)c3ccccc3)cc2)cc1`, for which the IC50 in assay [3] is > 109 µM (inactive); in assay [4], > 83.3 µM (inactive).

On to `CCN(CCNC(=O)C1CCCN(S(=O)(=O)CC)C1)c1ccccc1` (stereo unspecified), for which the IC50 in [5] is on record as > 100 µM (not active).

Regarding `CC(=O)c1ccc(N=Nc2c(C)[nH]n(-c3ccccc3)c2=O)cc1`, the IC50 in assay [6] was 4.4 µM (active).

With `CCOC(=O)c1c(-c2ccc(F)cc2)csc1NC(=O)CN1CCN(CC)CC1`, the AC50 in assay [7] is 42.5 µM (active).

Take `O=C(COc1cc(O)c2c(=O)c3ccccc3oc2c1)OCc1ccccc1`: in assay [8], the IC50 is > 100 µM (active).

In the case of `CN(C)CCNc1nc(-c2ccccc2)nc2ccccc12`, the IC50 in assay [9] was 58.1 µM (inactive); in assay [10], > 80 µM (inactive).

Regarding `CCN(CC)c1ccc2c(-c3ccc(S(=O)(=O)O)cc3S(=O)(=O)[O-])c3ccc(=[N+](CC)CC)cc-3oc2c1`, the IC50 in [11] was > 49.8 µM (not active); in assay [12], > 59.6 µM (inactive); in [13], 1.02 µM (active); in assay [14], > 39.8 µM (not active); in assay [19] it was > 59.6 µM (inactive). Further, the EC50 is 9.58 µM (active) in assay [15], 11.7 µM (active) in assay [17] and 11.4 µM (active) in assay [20]. Also, the AC50 in [16] is > 20 µM (inactive). In assay [18], the 50% cytotoxic concentration (CC50) is 18.4 µM (active).

On to `CCCCCCCCCCCCCCCCCCNC(=O)OC1CCN(C(=O)OC[C@H](COC(=O)N(Cc2cccc[n+]2CC)C(=O)c2ccccc2OC)OC)CC1` [MINOPAFANT], for which the IC50 in assay [21] is 9.52 µM (inactive); in assay [22], > 10 µM (inactive); in [23] it was 13.8 µM (inactive); in [24] it was > 10 µM (inactive); in [25], 21.7 µM (inactive).

Turning to `COc1cc2ncnc(Nc3cccc(Cl)c3)c2cc1OC` [TYRPHOSTIN AG-1478], in [26], the IC50 is on record as 12.7 µM (not active).

The term IC50 denotes the concentration that gives 50% inhibition. In general, AC50 refers to the concentration at which the activity in the assay is half-maximal. One may read the EC50 as the concentration needed to bring the measured effect to its halfway point. The term CC50 denotes the concentration at which the toxic effect on the cells reaches its halfway point.
